Measurements reported in the supplement of paper PMC10307832.

What was measured:
Assay in all cases: relative viability (nuclei count vs DMSO), 5 days (fraction); higher = more cells survive
[1] = compound: C1COCCN1C2=NC(=NC3=C2OC4=C3C=CC=N4)C5=CC(=CC=C5)NC(=O)C6=CN=C(C=C6)N + CS(=O)(=O)N1CCN(Cc2cc3nc(-c4cccc5[nH]ncc45)nc(N4CCOCC4)c3s2)CC1 [Pictilisib] (partner 1 µM)
Method in brief: (§1)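 Nuclei were stained with Hoechst during a one-step fixation (final 0.05% Triton X-100, 1% formaldehyde, 1 ug/ml Hoechst) carried out 5 days after dosing, then counted on 4× images. The cells, lung cancer lines in 1536-well plates, had been dosed by pin tool the day after seeding with one drug alone or a fixed anchor-drug dose plus five library-drug doses (not always all listed) in √10 steps. Relative viability is the nuclei count in treated wells divided by that in vehicle wells, and each value is the median of duplicate plates.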

[2] = compound: C1COCCN1C2=NC(=NC3=C2OC4=C3C=CC=N4)C5=CC(=CC=C5)NC(=O)C6=CN=C(C=C6)N + Nc1ncn([C@H]2C[C@H](O)[C@@H](CO)O2)c(=O)n1 [Decitabine] (partner 2 µM)
Method in brief: as §1

SGI-1776 + Pictilisib = compound: CN1CCC(CNc2ccc3ncc(-c4cccc(OC(F)(F)F)c4)n3n2)CC1 [SGI-1776] + CS(=O)(=O)N1CCN(Cc2cc3nc(-c4cccc5[nH]ncc45)nc(N4CCOCC4)c3s2)CC1 [Pictilisib] (partner 1 µM)
Method in brief: as §1

Entinostat + Pictilisib = compound: Nc1ccccc1NC(=O)c1ccc(CNC(=O)OCc2cccnc2)cc1 [Entinostat] + CS(=O)(=O)N1CCN(Cc2cc3nc(-c4cccc5[nH]ncc45)nc(N4CCOCC4)c3s2)CC1 [Pictilisib] (partner 1 µM)
Method in brief: as §1

Question: For NCI-H2126, which relative viability ([1]; first compound 0.02 µM) is on record?
Answer: 0.455

Question: What about the relative viability ([1]; first compound 0.06325 µM) of the same cell line?
Answer: 0.524

Question: What about the relative viability ([1]; first compound 0.2 µM) of the same cell line?
Answer: 0.486

Question: And the relative viability ([1]; first compound 0.6325 µM)?
Answer: 0.521

Question: What about the relative viability ([1]; first compound 2 µM) of the same cell line?
Answer: 0.442

Question: And the relative viability ([2]; first compound 0.02 µM)?
Answer: 0.54

Question: And the relative viability ([2]; first compound 0.06325 µM)?
Answer: 0.608

Question: And the relative viability ([2]; first compound 0.2 µM)?
Answer: 0.606

Question: What about the relative viability ([2]; first compound 0.6325 µM) of the same cell line?
Answer: 0.613

Question: And the relative viability ([2]; first compound 2 µM)?
Answer: 0.503

Question: And the relative viability (SGI-1776 + Pictilisib; first compound 0.08 µM)?
Answer: 0.499

Question: And the relative viability (SGI-1776 + Pictilisib; first compound 0.8 µM)?
Answer: 0.534

Question: And the relative viability (SGI-1776 + Pictilisib; first compound 2.53 µM)?
Answer: 0.501

Question: And the relative viability (SGI-1776 + Pictilisib; first compound 8 µM)?
Answer: 0.468

Question: What about the relative viability (Entinostat + Pictilisib; first compound 0.02 µM) of the same cell line?
Answer: 0.44

Question: And the relative viability (Entinostat + Pictilisib; first compound 0.06325 µM)?
Answer: 0.545

Question: What about the relative viability (Entinostat + Pictilisib; first compound 0.2 µM) of the same cell line?
Answer: 0.47

Question: And the relative viability (Entinostat + Pictilisib; first compound 0.6325 µM)?
Answer: 0.301

Question: What about the relative viability (Entinostat + Pictilisib; first compound 2 µM) of the same cell line?
Answer: 0.298

Question: Which relative viability ([1]; first compound 0.02 µM) does the source give for LXF-289 here?
Answer: 0.782

Question: And the relative viability ([1]; first compound 0.06325 µM)?
Answer: 0.861

Question: What about the relative viability ([1]; first compound 0.2 µM) of the same cell line?
Answer: 0.703

Question: What about the relative viability ([1]; first compound 0.6325 µM) of the same cell line?
Answer: 0.758

Question: And the relative viability ([1]; first compound 2 µM)?
Answer: 0.602

Question: And the relative viability ([2]; first compound 0.02 µM)?
Answer: 0.36

Question: What about the relative viability ([2]; first compound 0.06325 µM) of the same cell line?
Answer: 0.438

Question: What about the relative viability ([2]; first compound 0.2 µM) of the same cell line?
Answer: 0.329

Question: What about the relative viability ([2]; first compound 0.6325 µM) of the same cell line?
Answer: 0.457

Question: And the relative viability ([2]; first compound 2 µM)?
Answer: 0.409

Question: What about the relative viability (SGI-1776 + Pictilisib; first compound 0.08 µM) of the same cell line?
Answer: 0.699

Question: What about the relative viability (SGI-1776 + Pictilisib; first compound 0.8 µM) of the same cell line?
Answer: 0.837

Question: What about the relative viability (SGI-1776 + Pictilisib; first compound 2.53 µM) of the same cell line?
Answer: 0.806

Question: What about the relative viability (SGI-1776 + Pictilisib; first compound 8 µM) of the same cell line?
Answer: 0.67

Question: What about the relative viability (Entinostat + Pictilisib; first compound 0.02 µM) of the same cell line?
Answer: 0.78

Question: What about the relative viability (Entinostat + Pictilisib; first compound 0.06325 µM) of the same cell line?
Answer: 0.81

Question: What about the relative viability (Entinostat + Pictilisib; first compound 0.2 µM) of the same cell line?
Answer: 0.657

Question: And the relative viability (Entinostat + Pictilisib; first compound 0.6325 µM)?
Answer: 0.393

Question: What about the relative viability (Entinostat + Pictilisib; first compound 2 µM) of the same cell line?
Answer: 0.191

Question: With BEN as the cell line, how does the relative viability ([1]; first compound 0.02 µM) read?
Answer: 0.587

Question: What about the relative viability ([1]; first compound 0.06325 µM) of the same cell line?
Answer: 0.556

Question: And the relative viability ([1]; first compound 0.2 µM)?
Answer: 0.597

Question: What about the relative viability ([1]; first compound 0.6325 µM) of the same cell line?
Answer: 0.501

Question: What about the relative viability ([1]; first compound 2 µM) of the same cell line?
Answer: 0.589

Question: And the relative viability ([2]; first compound 0.02 µM)?
Answer: 0.75

Question: What about the relative viability ([2]; first compound 0.06325 µM) of the same cell line?
Answer: 0.762

Question: What about the relative viability ([2]; first compound 0.2 µM) of the same cell line?
Answer: 0.697

Question: What about the relative viability ([2]; first compound 0.6325 µM) of the same cell line?
Answer: 0.752

Question: And the relative viability ([2]; first compound 2 µM)?
Answer: 0.637

Question: What about the relative viability (SGI-1776 + Pictilisib; first compound 0.08 µM) of the same cell line?
Answer: 0.736

Question: What about the relative viability (SGI-1776 + Pictilisib; first compound 0.8 µM) of the same cell line?
Answer: 0.643

Question: And the relative viability (SGI-1776 + Pictilisib; first compound 2.53 µM)?
Answer: 0.504

Question: And the relative viability (SGI-1776 + Pictilisib; first compound 8 µM)?
Answer: 0.396

Question: What about the relative viability (Entinostat + Pictilisib; first compound 0.02 µM) of the same cell line?
Answer: 0.594

Question: And the relative viability (Entinostat + Pictilisib; first compound 0.06325 µM)?
Answer: 0.673

Question: What about the relative viability (Entinostat + Pictilisib; first compound 0.2 µM) of the same cell line?
Answer: 0.453

Question: And the relative viability (Entinostat + Pictilisib; first compound 0.6325 µM)?
Answer: 0.282

Question: What about the relative viability (Entinostat + Pictilisib; first compound 2 µM) of the same cell line?
Answer: 0.188

Question: Which relative viability ([1]; first compound 0.02 µM) does the source give for SW 1573 here?
Answer: 0.555

Question: And the relative viability ([1]; first compound 0.06325 µM)?
Answer: 0.54

Question: What about the relative viability ([1]; first compound 0.2 µM) of the same cell line?
Answer: 0.621

Question: And the relative viability ([1]; first compound 0.6325 µM)?
Answer: 0.534

Question: And the relative viability ([1]; first compound 2 µM)?
Answer: 0.344

Question: What about the relative viability ([2]; first compound 0.02 µM) of the same cell line?
Answer: 0.555

Question: And the relative viability ([2]; first compound 0.06325 µM)?
Answer: 0.472

Question: What about the relative viability ([2]; first compound 0.2 µM) of the same cell line?
Answer: 0.565

Question: And the relative viability ([2]; first compound 0.6325 µM)?
Answer: 0.543

Question: And the relative viability ([2]; first compound 2 µM)?
Answer: 0.422

Question: What about the relative viability (SGI-1776 + Pictilisib; first compound 0.08 µM) of the same cell line?
Answer: 0.452

Question: What about the relative viability (SGI-1776 + Pictilisib; first compound 0.8 µM) of the same cell line?
Answer: 0.449

Question: And the relative viability (SGI-1776 + Pictilisib; first compound 2.53 µM)?
Answer: 0.424

Question: What about the relative viability (SGI-1776 + Pictilisib; first compound 8 µM) of the same cell line?
Answer: 0.393

Question: And the relative viability (Entinostat + Pictilisib; first compound 0.02 µM)?
Answer: 0.518

Question: What about the relative viability (Entinostat + Pictilisib; first compound 0.06325 µM) of the same cell line?
Answer: 0.506

Question: And the relative viability (Entinostat + Pictilisib; first compound 0.2 µM)?
Answer: 0.451

Question: And the relative viability (Entinostat + Pictilisib; first compound 0.6325 µM)?
Answer: 0.495

Question: And the relative viability (Entinostat + Pictilisib; first compound 2 µM)?
Answer: 0.344

Question: NCI-H1993 was tested. Which relative viability ([1]; first compound 0.02 µM) did it give?
Answer: 0.76

Question: What about the relative viability ([1]; first compound 0.06325 µM) of the same cell line?
Answer: 0.708

Question: What about the relative viability ([1]; first compound 0.2 µM) of the same cell line?
Answer: 0.861

Question: And the relative viability ([1]; first compound 0.6325 µM)?
Answer: 0.791

Question: What about the relative viability ([1]; first compound 2 µM) of the same cell line?
Answer: 0.85

Question: And the relative viability ([2]; first compound 0.02 µM)?
Answer: 0.549

Question: What about the relative viability ([2]; first compound 0.06325 µM) of the same cell line?
Answer: 0.293

Question: And the relative viability ([2]; first compound 0.2 µM)?
Answer: 0.531

Question: And the relative viability ([2]; first compound 0.6325 µM)?
Answer: 0.547

Question: What about the relative viability ([2]; first compound 2 µM) of the same cell line?
Answer: 0.57

Question: What about the relative viability (SGI-1776 + Pictilisib; first compound 0.08 µM) of the same cell line?
Answer: 0.711

Question: What about the relative viability (SGI-1776 + Pictilisib; first compound 0.8 µM) of the same cell line?
Answer: 0.665

Question: And the relative viability (SGI-1776 + Pictilisib; first compound 2.53 µM)?
Answer: 0.839

Question: What about the relative viability (SGI-1776 + Pictilisib; first compound 8 µM) of the same cell line?
Answer: 0.703

Question: What about the relative viability (Entinostat + Pictilisib; first compound 0.02 µM) of the same cell line?
Answer: 0.878

Question: And the relative viability (Entinostat + Pictilisib; first compound 0.06325 µM)?
Answer: 0.876

Question: What about the relative viability (Entinostat + Pictilisib; first compound 0.2 µM) of the same cell line?
Answer: 0.916

Question: What about the relative viability (Entinostat + Pictilisib; first compound 0.6325 µM) of the same cell line?
Answer: 0.888

Question: And the relative viability (Entinostat + Pictilisib; first compound 2 µM)?
Answer: 0.833
